Measured values: the supplement of paper PMC10307832

Key:
Test in all cases: relative viability (nuclei count vs DMSO), 5 days (fraction); higher = more cells survive
[1] = system: A-427
Procedure, shortened: (§1)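 Lung cancer cell lines in 1536-well plates were dosed by pin tool the day after seeding, either with one drug alone or with a fixed anchor-drug dose plus five library-drug doses (not always all listed) in √10 steps. After 5 days, cells were fixed and their nuclei stained in one step (final 0.05% Triton X-100, 1% formaldehyde, 1 ug/ml Hoechst), then counted on 4× images. Relative viability is the nuclei count in treated wells divided by that in vehicle wells. Values are medians of duplicate plates.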

[2] = system: CAL-12T
Procedure, shortened: as §1

[3] = system: COR-L 105
Procedure, shortened: as §1

[4] = system: COR-L23
Procedure, shortened: as §1

[5] = system: EPLC-272H
Procedure, shortened: as §1

[6] = system: HOP-62
Procedure, shortened: as §1

[7] = system: LCLC-103H
Procedure, shortened: as §1

[8] = system: LXF-289
Procedure, shortened: as §1

[9] = system: NCI-H1395
Procedure, shortened: as §1

[10] = system: NCI-H1651
Procedure, shortened: as §1

[11] = system: NCI-H1975
Procedure, shortened: as §1

[12] = system: NCI-H1993
Procedure, shortened: as §1

[13] = system: NCI-H2023
Procedure, shortened: as §1

[14] = system: NCI-H2085
Procedure, shortened: as §1

[15] = system: NCI-H2087
Procedure, shortened: as §1

[16] = system: NCI-H2170
Procedure, shortened: as §1

[17] = system: NCI-H3122
Procedure, shortened: as §1

[18] = system: NCI-H596
Procedure, shortened: as §1

[19] = system: NCI-H647
Procedure, shortened: as §1

[20] = system: NCI-H650
Procedure, shortened: as §1

[21] = system: PC-14
Procedure, shortened: as §1

[22] = system: RERF-LC-KJ
Procedure, shortened: as §1

[23] = system: SK-MES-1
Procedure, shortened: as §1

O=C(O)CCCCC(CCSCc1ccccc1)SCc1ccccc1 (stereo not given) [CPI-613] + Cc1cc(Nc2cc(N3CCN(C)CC3)nc(Sc3ccc(NC(=O)C4CC4)cc3)n2)n[nH]1 [Tozasertib] (partner 0.1 µM)
relative viability ([1]; first compound 5 µM): 0.204
relative viability ([1]; first compound 15.81 µM): 0.193
relative viability ([1]; first compound 50 µM): 0.203
relative viability ([1]; first compound 158.11 µM): 0.124
relative viability ([1]; first compound 500 µM): 0.0991
relative viability ([2]; first compound 5 µM): 0.284
relative viability ([2]; first compound 15.81 µM): 0.253
relative viability ([2]; first compound 50 µM): 0.256
relative viability ([2]; first compound 158.11 µM): 0.0605
relative viability ([2]; first compound 500 µM): 0.0057
relative viability ([3]; first compound 5 µM): 0.288
relative viability ([3]; first compound 15.81 µM): 0.348
relative viability ([3]; first compound 50 µM): 0.321
relative viability ([3]; first compound 158.11 µM): 0.321
relative viability ([3]; first compound 500 µM): 0.137
relative viability ([4]; first compound 5 µM): 0.208
relative viability ([4]; first compound 15.81 µM): 0.145
relative viability ([4]; first compound 50 µM): 0.192
relative viability ([4]; first compound 158.11 µM): 0.11
relative viability ([4]; first compound 500 µM): 0.0434
relative viability ([5]; first compound 5 µM): 0.285
relative viability ([5]; first compound 15.81 µM): 0.279
relative viability ([5]; first compound 50 µM): 0.242
relative viability ([5]; first compound 158.11 µM): 0.0813
relative viability ([5]; first compound 500 µM): 0.0387
relative viability ([6]; first compound 5 µM): 0.383
relative viability ([6]; first compound 15.81 µM): 0.305
relative viability ([6]; first compound 50 µM): 0.286
relative viability ([6]; first compound 158.11 µM): 0.191
relative viability ([6]; first compound 500 µM): 0.0544
relative viability ([7]; first compound 5 µM): 0.441
relative viability ([7]; first compound 15.81 µM): 0.389
relative viability ([7]; first compound 50 µM): 0.47
relative viability ([7]; first compound 158.11 µM): 0.387
relative viability ([7]; first compound 500 µM): 0.424
relative viability ([8]; first compound 5 µM): 0.178
relative viability ([8]; first compound 15.81 µM): 0.142
relative viability ([8]; first compound 50 µM): 0.176
relative viability ([8]; first compound 158.11 µM): 0.0521
relative viability ([8]; first compound 500 µM): 0.0406
relative viability ([9]; first compound 5 µM): 0.691
relative viability ([9]; first compound 15.81 µM): 0.632
relative viability ([9]; first compound 50 µM): 0.653
relative viability ([9]; first compound 158.11 µM): 0.752
relative viability ([9]; first compound 500 µM): 0.612
relative viability ([10]; first compound 5 µM): 0.705
relative viability ([10]; first compound 15.81 µM): 0.588
relative viability ([10]; first compound 50 µM): 0.77
relative viability ([10]; first compound 158.11 µM): 0.275
relative viability ([10]; first compound 500 µM): 0.109
relative viability ([11]; first compound 5 µM): 0.7
relative viability ([11]; first compound 15.81 µM): 0.639
relative viability ([11]; first compound 50 µM): 0.676
relative viability ([11]; first compound 158.11 µM): 0.324
relative viability ([11]; first compound 500 µM): 0.233
relative viability ([12]; first compound 5 µM): 0.631
relative viability ([12]; first compound 15.81 µM): 0.669
relative viability ([12]; first compound 50 µM): 0.559
relative viability ([12]; first compound 158.11 µM): 0.507
relative viability ([12]; first compound 500 µM): 0.426
relative viability ([13]; first compound 5 µM): 0.359
relative viability ([13]; first compound 15.81 µM): 0.234
relative viability ([13]; first compound 50 µM): 0.312
relative viability ([13]; first compound 158.11 µM): 0.0417
relative viability ([13]; first compound 500 µM): 0.0077
relative viability ([14]; first compound 5 µM): 0.769
relative viability ([14]; first compound 15.81 µM): 0.683
relative viability ([14]; first compound 50 µM): 0.734
relative viability ([14]; first compound 158.11 µM): 0.386
relative viability ([14]; first compound 500 µM): 0.105
relative viability ([15]; first compound 5 µM): 0.316
relative viability ([15]; first compound 15.81 µM): 0.256
relative viability ([15]; first compound 50 µM): 0.21
relative viability ([15]; first compound 158.11 µM): 0.0949
relative viability ([15]; first compound 500 µM): 0.0489
relative viability ([16]; first compound 5 µM): 0.732
relative viability ([16]; first compound 15.81 µM): 0.55
relative viability ([16]; first compound 50 µM): 0.694
relative viability ([16]; first compound 158.11 µM): 0.347
relative viability ([16]; first compound 500 µM): 0.183
relative viability ([17]; first compound 5 µM): 0.357
relative viability ([17]; first compound 15.81 µM): 0.363
relative viability ([17]; first compound 50 µM): 0.348
relative viability ([17]; first compound 158.11 µM): 0.211
relative viability ([17]; first compound 500 µM): 0.0108
relative viability ([18]; first compound 5 µM): 1.08
relative viability ([18]; first compound 15.81 µM): 0.923
relative viability ([18]; first compound 50 µM): 0.966
relative viability ([18]; first compound 158.11 µM): 0.595
relative viability ([18]; first compound 500 µM): 0.0638
relative viability ([19]; first compound 5 µM): 0.384
relative viability ([19]; first compound 15.81 µM): 0.244
relative viability ([19]; first compound 50 µM): 0.286
relative viability ([19]; first compound 158.11 µM): 0.0859
relative viability ([19]; first compound 500 µM): 0.021
relative viability ([20]; first compound 5 µM): 0.702
relative viability ([20]; first compound 15.81 µM): 0.623
relative viability ([20]; first compound 50 µM): 0.699
relative viability ([20]; first compound 158.11 µM): 0.546
relative viability ([20]; first compound 500 µM): 0.586
relative viability ([21]; first compound 5 µM): 0.556
relative viability ([21]; first compound 15.81 µM): 0.531
relative viability ([21]; first compound 50 µM): 0.553
relative viability ([21]; first compound 158.11 µM): 0.502
relative viability ([21]; first compound 500 µM): 0.536
relative viability ([22]; first compound 5 µM): 0.536
relative viability ([22]; first compound 15.81 µM): 0.513
relative viability ([22]; first compound 50 µM): 0.454
relative viability ([22]; first compound 158.11 µM): 0.188
relative viability ([22]; first compound 500 µM): 0.0899
relative viability ([23]; first compound 5 µM): 0.895
relative viability ([23]; first compound 15.81 µM): 0.783
relative viability ([23]; first compound 50 µM): 0.753
relative viability ([23]; first compound 158.11 µM): 0.138
relative viability ([23]; first compound 500 µM): 0.106
